Data from PMC4460250, “Systems Pharmacology Dissecting Holistic Medicine for Treatment of Complex Diseases: An Example Using Cardiocerebrovascular Diseases Treated by TCM” (Evidence-based Complementary and Alternative Medicine : eCAM, 2015).

Experiments:
[1] = in vivo
[2] = in vivo; cited from earlier work

Row | SMILES | Class(High: HIA value ≥0.7; Low: HIA value < 0.7) [1] | HIA(Human Intestinal Absorption) [2]
1 | CC[C@H](C(=O)O)c1ccc(N2Cc3ccccc3C2=O)cc1 [Indobufen(S)] | High (key: High: HIA value ≥0.7; Low: HIA value < 0.7) | 1
2 | O=C(O)CCCc1ccc(N(CCCl)CCCl)cc1 [Chlorambucil] | High (key: High: HIA value ≥0.7; Low: HIA value < 0.7) | 1
3 | CN(Cc1cnc2nc(N)nc(N)c2n1)c1ccc(C(=O)NC(CCC(=O)O)C(=O)O)cc1 (stereo in doubt) [Methotrexate(R)] | High (key: High: HIA value ≥0.7; Low: HIA value < 0.7) | 1
4 | CC[C@@H](C(=O)O)c1ccc(N2Cc3ccccc3C2=O)cc1 [Indobufen(R)] | High (key: High: HIA value ≥0.7; Low: HIA value < 0.7) | 1
5 | OC(O)C(Cl)(Cl)Cl [Chloral_hydrate] | High (key: High: HIA value ≥0.7; Low: HIA value < 0.7) | 1
6 | CC(C)NC[C@@H](O)COc1cccc2[nH]ccc12 [Pindolol(R)] | High (key: High: HIA value ≥0.7; Low: HIA value < 0.7) | 0.9
7 | OCCN1CCN(CC/C=C2/c3ccccc3Sc3ccc(C(F)(F)F)cc32)CC1 [Flupentixol] | High (key: High: HIA value ≥0.7; Low: HIA value < 0.7) | 1
8 | CC(C)NC[C@@H](O)c1ccc(O)c(O)c1 [Isoproterenol(S)] | High (key: High: HIA value ≥0.7; Low: HIA value < 0.7) | 0.85
9 | CN[C@@H]1[C@@H](O)[C@@H](O[C@@H]2[C@@H](O)[C@H](O[C@H]3O[C@H]([C@@H](C)N)CC[C@H]3N)[C@@H](N)C[C@H]2N)OC[C@]1(C)O [GentamicinC2(R)] | Low (key: High: HIA value ≥0.7; Low: HIA value < 0.7) | 0.01
10 | CN1[C@H](CSCC(F)(F)F)Nc2cc(Cl)c(S(N)(=O)=O)cc2S1(=O)=O [Polythiazide(R)] | High (key: High: HIA value ≥0.7; Low: HIA value < 0.7) | 1
11 | NC[C@@H]1O[C@H](O[C@H]2[C@@H](O)[C@H](O[C@@H]3[C@@H](O)[C@H](N)C[C@H](N)[C@H]3O[C@H]3O[C@H](CN)[C@@H](O)[C@H](O)[C@H]3N)O[C@@H]2CO)[C@H](N)[C@@H](O)[C@@H]1O [Neomycin] | Low (key: High: HIA value ≥0.7; Low: HIA value < 0.7) | 0.03
12 | CC[C@@H](CO)NC(=O)[C@@H]1C=C2c3cccc4c3c(cn4C)C[C@H]2N(C)C1 [Methysergide] | High (key: High: HIA value ≥0.7; Low: HIA value < 0.7) | 1
13 | N=C(N)NC[C@H]1COC2(CCCCC2)O1 [Guanadrel(S)] | High (key: High: HIA value ≥0.7; Low: HIA value < 0.7) | 0.8
14 | COc1ccccc1OC[C@@H](O)COC(N)=O [Methocarbamol(R)] | High (key: High: HIA value ≥0.7; Low: HIA value < 0.7) | 1
15 | CC(C)(C)NCC(O)COc1nsnc1N1CCOCC1 (stereo in doubt) [Timolol(R)] | High (key: High: HIA value ≥0.7; Low: HIA value < 0.7) | 0.95
16 | CCOC(=O)C1=C(C)NC(C)=C(C(=O)OC)[C@@H]1c1cccc([N+](=O)[O-])c1 [Nitrendipine(S)] | High (key: High: HIA value ≥0.7; Low: HIA value < 0.7) | 0.88
17 | NCC(=O)O [Glycine] | High (key: High: HIA value ≥0.7; Low: HIA value < 0.7) | 1
18 | C[C@H](CN(C)C)CN1c2ccccc2Sc2ccccc21 [Trimeprazine(R)] | High (key: High: HIA value ≥0.7; Low: HIA value < 0.7) | 0.8
19 | CN1[C@@H](CSCC(F)(F)F)Nc2cc(Cl)c(S(N)(=O)=O)cc2S1(=O)=O [Polythiazide(S)] | High (key: High: HIA value ≥0.7; Low: HIA value < 0.7) | 1
20 | COC(=O)C1=C(C)NC(C)=C(C(=O)OCCN(C)Cc2ccccc2)[C@H]1c1cccc([N+](=O)[O-])c1 [Nicardipine(S)] | High (key: High: HIA value ≥0.7; Low: HIA value < 0.7) | 0.95
21 | COC(=O)C1=C(C)NC(C)=C(C(=O)OCC(C)C)[C@@H]1c1ccccc1[N+](=O)[O-] [Nisoldipine(R)] | High (key: High: HIA value ≥0.7; Low: HIA value < 0.7) | 0.9

Row | SMILES | Class(High: HIA value ≥0.7; Low: HIA value < 0.7) [1] | HIA(Human Intestinal Absorption) [2]
22 | CN1CCC[C@H]1c1cccnc1 [Nicotine(S)] | High (key: High: HIA value ≥0.7; Low: HIA value < 0.7) | 1
23 | COc1ccc2c3c1O[C@H]1C(=O)CC[C@@]4(O)[C@@H](C2)N(C)CC[C@]314 [Oxycodone] | Low (key: High: HIA value ≥0.7; Low: HIA value < 0.7) | 0.6
24 | C[C@@H](C(=O)O)c1cccc(Oc2ccccc2)c1 [Fenoprofen(R)] | High (key: High: HIA value ≥0.7; Low: HIA value < 0.7) | 0.85
25 | CC1(C)S[C@@H]2[C@H](NC(=O)COc3ccccc3)C(=O)N2[C@H]1C(=O)O [Phenoxymethyl penicillinic acid] | Low (key: High: HIA value ≥0.7; Low: HIA value < 0.7) | 0.45
26 | CN1C(=O)[C@@H](O)N=C(c2ccccc2Cl)c2cc(Cl)ccc21 [Lormetazepam(R)] | High (key: High: HIA value ≥0.7; Low: HIA value < 0.7) | 1
27 | N=C(N)NC[C@H]1COc2ccccc2O1 [Guanoxan(S)] | Low (key: High: HIA value ≥0.7; Low: HIA value < 0.7) | 0.5
28 | C=CCOc1ccccc1OC[C@@H](O)CNC(C)C [Oxprenolol(S)] | High (key: High: HIA value ≥0.7; Low: HIA value < 0.7) | 0.95
29 | CN1C(=O)CCC1c1cccnc1 (stereo in doubt) [Cotinine(R)] | High (key: High: HIA value ≥0.7; Low: HIA value < 0.7) | 0.97
30 | CC[C@H](c1ccccc1)c1c(O)c2ccccc2oc1=O [Phenprocoumon(R)] | High (key: High: HIA value ≥0.7; Low: HIA value < 0.7) | 0.95
31 | CCN(CC)CC[C@@]1(c2ccccc2)CCC(=O)NC1=O [Phenglutarimide(R)] | High (key: High: HIA value ≥0.7; Low: HIA value < 0.7) | 1
32 | CCO [Ethyl_alcohol] | High (key: High: HIA value ≥0.7; Low: HIA value < 0.7) | 1
33 | C[C@H](NC(C)(C)C)C(=O)c1cccc(Cl)c1 [Bupropion(S)] | High (key: High: HIA value ≥0.7; Low: HIA value < 0.7) | 0.87
34 | COC(=O)C1=C(C)NC(C)=C(C(=O)OC(C)C)[C@H]1c1cccc2nonc12 [Isradipine(S)] | High (key: High: HIA value ≥0.7; Low: HIA value < 0.7) | 0.92
35 | CCCCCCCN(CC)CCC[C@@H](O)c1ccc(NS(C)(=O)=O)cc1 [Ibutilide(R)] | High (key: High: HIA value ≥0.7; Low: HIA value < 0.7) | 0.82
36 | CCOC(=O)C1(c2ccccc2)CCC=CC1N(C)C (stereo not shown) [Tilidine] | High (key: High: HIA value ≥0.7; Low: HIA value < 0.7) | 1
37 | CC[C@]1(c2ccc(N)cc2)CCC(=O)NC1=O [Aminoglutethimide(R)] | High (key: High: HIA value ≥0.7; Low: HIA value < 0.7) | 1
38 | N#C[C@H](O[C@@H]1O[C@H](CO[C@@H]2O[C@H](CO)[C@@H](O)[C@H](O)[C@H]2O)[C@@H](O)[C@H](O)[C@H]1O)c1ccccc1 [Amygdalin(S)] | Low (key: High: HIA value ≥0.7; Low: HIA value < 0.7) | 0.05
39 | C=CCc1ccccc1OC[C@H](O)CNC(C)C [Alprenolol(R)] | High (key: High: HIA value ≥0.7; Low: HIA value < 0.7) | 0.93
40 | NC[C@H](CC(=O)O)c1ccc(Cl)cc1 [Baclofen(R)] | High (key: High: HIA value ≥0.7; Low: HIA value < 0.7) | 0.95
41 | CCN(CCCCOC(=O)c1ccc(OC)c(OC)c1)[C@H](C)Cc1ccc(OC)cc1 [Mebeverine(R)] | High (key: High: HIA value ≥0.7; Low: HIA value < 0.7) | 0.9
